Read-outs that look alike come from different tables or passages of the source.

Holding throughout (type): cell-based
Assay [1] has as its system human prostate adenocarcinoma cell line PC-3. Nature of the assay: MTT assay, quinones, PC-3. The conditions noted are these: read-out: ID50 PC-3. On the procedure:
Cell Culture: The human lung adenocarcinoma cell line, A549, and human prostatic cancer cell line, DUPRO, were a gift from Dr. M. Eileen Dolan, University of Chicago, Department of Medicine. A549 was grown in Ham's F-12K medium (Fisher Scientific, Itasca, Ill.) supplemented with 10% fetal bovine serum and 2 mM L-glutamine. DUPRO was grown in RPMI-1640 supplemented with 10% fetal bovine serum. The human colon carcinoma cell line, HT29, and the human breast carcinoma cell line, MCF7, were obtained from the American Type Culture Collection, Rockville, Md. HT29 cells were grown in McCoy's 5A medium (Gibco, BRL, Gaithersburg, Md.) supplemented with 10% fetal bovine serum. MCF7 cells were grown in Richter's Improved Modified Eagle's medium supplemented with 10% fetal bovine serum and 2.2 g/L sodium bicarbonate. The human prostate adenocarcinoma cell lines, LNCAP, PC-3 and DU145, were gifts from Dr. George Wilding, University of Wisconsin Comprehensive Cancer Center and the Department of Medicine, and were grown in Dulbecco's Modified Eagle's medium supplemented with a 5% fetal bovine serum. The malignant glioma cell line, U251MG NCI was obtained from the brain tumor tissue bank at the University of California, San Francisco Department of Neurosurgery, and was grown in Dulbecco's Modified Eagle's medium supplemented wth 10% fetal bovine serum. DUPRO, A549 and MCF7 cells were grown in 100 units/mL penicillin and 100 μg/mL streptomycin. HT29 and U251MG NCI cells were grown in 50 μg/mL gentamycin. LNCAP, PC-3 and DU145 cells were maintained in 1% antibiotic antimycotic solution (Sigma, St. Louis, Mo.). All cell cultures were maintained at 37° C. in 5% CO2/95% humidified air.
MTT assay. Exponentially growing monolayer cells were plated in 96 well plates at a density of 500 cells/well and allowed to grow for 24 h. Serially diluted drug solutions were added such that the final drug concentrations in the treatment media were between 0 and 35 μM. Cells were incubated with drug at either 4 hr or 72 hr. After 4 hr and 72 hr treatment, drugs were removed, fresh media (without) drug (100 uL) was added and cells were incubated for 6 days. After six days, 25 μL of a Dulbecco's phosphate-buffered saline solution containing 5 mg/mL of MTT (Thiazolyl blue) (Sigma) was added to each well and incubated for 4 h at 37° C. Then 100 μL of lysis buffer (20% sodium dodecyl sulfate, 50% N,N-dimethylformamide and 0.8% acetic acid, pH 4.7) was added to each well and incubated for an additional 22 h. A microplate reader (E max, Molecular Devices, Sunnyvale, Calif.) set at 570 nm was used to determine the optical density. Results were plotted as a ratio of the optical density in drug treated wells to the optical density in wells treated with vehicle alone. Plotting and estimation of ID50 values were accomplished with manufacturer supplied software. The data is presented below in Tables 3, 4, 5 and 6.
(Tetrazolium assays rely on reduction of a dye to a coloured formazan, in cell work by metabolically active cells.)

Assay [2] has as its system human brain tumor cells U251 MG NCI. Nature of the assay: MTT assay, polyamine analogs, U251 MG NCI. The conditions noted are these: for IC50: U-251, 144 h, read-out: concentration needed for 50% growth inhibition (ID50) U251MG, Table 2, MTT six days after drug treatment; for EC50: U-251, survival of cultured U251 MG NCI cells, figure legends, read-out: ED50 (the source's name). On the procedure:
(§1) Human breast cancer cell line MCF7 was grown in Richter's Improved Modified Eagle's Medium supplemented with 10% fetal bovine serum (FBS) and 2.2 g/L sodium bicarbonate. Human brain tumor cell line U251 MG-NCI was grown in Dulbecco's Modified Eagle's Medium supplemented with 10% FBS. Human lung cancer cell line A549 was grown in Ham's F-12K medium (Cellgro, Mediatech, Inc., VA), supplemented with 10% FBS and 2 mM L-glutamine. Human colon cancer cell line HT29 was cultured in McCoy's 5A medium (Gibco, BRL, Gaithersburg, Md.) supplemented with 10% FBS. Human prostate cancer cell lines PC-3, LNCAP and DuPro were grown in RPMI 1640 Medium (Cellgro, Mediatech, Inc., VA) supplemented with 10% FBS. Another human prostate cancer cell line DU145 was grown in Dulbecco's Modified Eagle's Medium (Gibco, BRL, Gaithersburg, Md.) supplemented with 5% FBS. The A549, MCF7, PC3, LNCAP and DuPro cell lines were cultured in 100 units/mL penicillin and 100 μg/mL streptomycin. HT29 and U251MG cell lines were grown in 50 μg/mL gentamycin (Gibco, BRL, Gaithersburg, Md.). DU145 cell line was maintained in 1% antibitic-antimycotic solution (Sigma, St. Louis, Mo.). The cell cultures were maintained at 37° C. in 5% CO2/95% humidified air. DuPro cells were obtained from M. Eileen Dolan, University of Chicago. All other cells are available from the American Type Culture Collection, Rockville, Md.
(§2) A conventional MTT assay was used to evaluate percent cell survival. Exponentially growing monolayer cells were plated in 96-well plates at a density of 500 cells per well and allowed to grow for 24 hours. Serial dilutions of the drugs were added to the wells. Six days after drug treatment, 25 μl of MTT solution (5 mg/ml) was added to each well and incubated for 4 hours at 37° C. Then 100 μl of lysis buffer (20% sodium dodecyl sulfate, 50% DMF, and 0.8% acetic acid, pH 4.7) was added to each well and incubated for an additional 22 hours. A microplate reader (“EMAX”-brand, Molecular Devices, Sunnyvale, Calif.) set at 570 nm was used to determine the optical density of the cultures. Results are expressed as a ratio of the optical density in drug-treated wells to the optical density in wells treated with vehicle only.

In assay [3] the test system is human lung cancer cells A549. Nature of the assay: MTT assay, polyamine analogs, A549. The conditions noted are these: for EC50: A549, survival of cultured A549 cells, figure legends, read-out: ED50 (the source's name). On the procedure: (§3) As shown in Table 2 and FIGS. 1-32, several novel conformationally restricted polyamine analogs were tested for anti-proliferative properties against cancer cells.
as §1, §2

The subject of assay [4] is human prostate cancer cells DUPRO. Description: MTT assay, polyamine analogs, DUPRO. The conditions noted are these: Homo sapiens, DuPro; for IC50: 144 h, read-out: concentration needed for 50% growth inhibition (ID50) DUPRO, Table 2, MTT six days after drug treatment; for EC50: survival of cultured DUPRO cells, figure legends, read-out: ED50 (the source's name). On the procedure: as §1, §2

The subject of assay [5] is human prostate cancer cells DU145. Nature of the assay: MTT assay, polyamine analogs, DU145. The conditions noted are these: Homo sapiens; for IC50: DU-145, 144 h, read-out: concentration needed for 50% growth inhibition (ID50) DU-145, Table 2, MTT six days after drug treatment; for EC50: DU-145, survival of cultured DU145 cells, figure legends, read-out: ED50 (the source's name). On the procedure: as §1, §2

In assay [6] the test system is human colon cancer cells HT29. Description: MTT assay, polyamine analogs, HT29. The conditions noted are these: for IC50: HT-29, 144 h, read-out: concentration needed for 50% growth inhibition (ID50) HT-29, Table 2, MTT six days after drug treatment; for EC50: HT-29, survival of cultured HT29 cells, figure legends, read-out: ED50 (the source's name). On the procedure: as §3, §1, §2

Assay [7] has as its system human prostate cancer cells PC3. Nature of the assay: MTT assay, polyamine analogs, PC3. The conditions noted are these: for EC50: PC-3, survival of cultured PC3 cells, figure legends, read-out: ED50 (the source's name). On the procedure: as §1, §2
The test system of assay [8] is human breast cancer cells MCF7. Description: MTT assay, polyamine analogs, MCF7. The conditions noted are these: for IC50: MCF7, 144 h, read-out: concentration needed for 50% growth inhibition (ID50) MCF7, Table 2, MTT six days after drug treatment; for EC50: MCF7, survival of cultured MCF7 cells, figure legends, read-out: ED50 (the source's name). On the procedure:
as §3, §1, §2

Where [9] appears, read: Table 3, treatment time not given in cell.
[10] abbreviates: Homo sapiens, A549, 144 h, read-out: concentration needed for 50% growth inhibition (ID50) A549, Table 2, MTT six days after drug treatment.
The mark [11] stands for this setting: read-out: concentration needed for 50% growth inhibition (ID50) A549, Table 2, MTT six days after drug treatment.

As to `O=C1C=C(OCCCCCCOc2ccc(OC3OC(CO)C(O)C(O)C3O)cc2)c2ccccc2C1=O` (stereo not drawn) [SL-11066], in assay [1] (setting [9]), the IC50 is greater than 31.2 µM.
In the case of `CN1CCN(c2ccc3nc(-c4ccc5nc(-c6ccc(O)cc6)[nH]c5c4)[nH]c3c2)CC1` [SL-11063], the IC50 in assay [1] (Table 5, non-quinone structure) is greater than 31.2 µM.
As to `NCCCCCC(=O)OCCCCCCOC1=CC(=O)C(=O)c2ccccc21` [SL-11075], the IC50 in assay [1] (setting [9]) was found to be 2 µM.
Turning to `CCNCCCCNCC1CC1CNCCCCNCC` (stereo not drawn) [SL-11098], the IC50 is 0.1 µM in assay [2]; 0.51 µM in assay [3] (setting [10]); 0.08 µM in assay [4]; 0.018 µM in assay [5]; 0.4 µM in assay [6].
Take `CCNC(=O)CCNC(=O)CCCNC(=O)CCNC(=O)CCCCOC1=CC(=O)C(=O)c2ccccc21` [SL-11085]: the IC50 in assay [1] (setting [9]) was greater than 31.2 µM.
Same read-out and setting: under `O=C1C=C(OCCCCCCOc2ccccc2)c2ccccc2C1=O` [SL-11068] stands 1.5 µM.
In the case of `CCNCCCCNCC1CCC1CNCCCCNCC` (stereo not drawn) [SL-11099], the EC50 in assay [7] came to 2.5 µM; in assay [2], 0.11 µM; in assay [3] (Homo sapiens), 0.51 µM; in assay [5] it was 0.014 µM; in assay [8], 26.3 µM; in assay [6] it was 1 µM. Also, the IC50 in assay [2] is 0.11 µM; in assay [3] (setting [11]), 0.65 µM; in assay [5] it was 0.014 µM; in assay [8], 26.3 µM; in assay [6], 1 µM.
Turning to `CN(C)c1cccc(OC(=O)CCCCOC2=CC(=O)C(=O)c3ccccc32)c1` [SL-11074], in assay [1] (setting [9]), the IC50 was found to be 4.6 µM.
Consider `CCNCCCNCC1CCCC1NCCCNCC` (stereo not drawn) [SL-11105], for which the IC50 in assay [7] (144 h, read-out: concentration needed for 50% growth inhibition (ID50) PC-3, Table 2, MTT six days after drug treatment) is greater than 31.2 µM; in assay [2], 25.9 µM; in assay [3] (setting [10]), greater than 31.2 µM; in assay [4], greater than 31.2 µM; in assay [5] it was 1.6 µM; in assay [8], greater than 31.2 µM. Moreover, the IC50 in assay [6] came out at 25.2 µM. Also, the EC50 in assay [7] is greater than 31.2 µM; in assay [2] it was 25.9 µM; in assay [3] (Homo sapiens) it was 0.43 µM; in assay [4], 0.43 µM; in assay [5] it was 1.6 µM; in assay [8], greater than 31.2 µM. The EC50 in assay [6] was 25.2 µM.
Consider `CCNCCCNCc1ccccc1CNCCCNCC` [SL-11094], for which the EC50 in assay [7] was greater than 31.2 µM; in assay [2], greater than 31.2 µM; in assay [3] (Homo sapiens), greater than 31.2 µM; in assay [5], 15.4 µM; in assay [8], greater than 31.2 µM; in assay [6], 28.8 µM. Also, the IC50 in assay [2] was greater than 31.2 µM; in assay [3] (setting [10]), greater than 31.2 µM; in assay [5] it was 12.6 µM; in assay [8] it was greater than 31.2 µM; in assay [6], 28.8 µM.
Take `CCNCCCCNCc1ccccc1CNCCCCNCC` [SL-11104]: the EC50 in assay [7] is greater than 31.2 µM; in assay [2] it was 14.7 µM; in assay [3] (Homo sapiens), greater than 31.2 µM; in assay [5], 9.4 µM; in assay [8], greater than 31.2 µM; in assay [6], 25.8 µM. Also, the IC50 in assay [2] is 14.7 µM; in assay [3] (setting [10]), 0.43 µM; in assay [5], 9.4 µM; in assay [8], greater than 31.2 µM; in assay [6], 25.8 µM.
As to `CCNCCCCNCC1CCC1CNCCCCNCC` (stereo not drawn) [SL-11100], the IC50 in assay [3] (setting [11]) is 2.2 µM.
As to `O=C1C=C(OCCCCCCOC2=CC(=O)c3ccccc3C2=O)c2ccccc2C1=O` [SL-11065], in assay [1] (setting [9]), the IC50 is 1.4 µM.
Take `N#Cc1ccc(OCCCCCCOC2=CC(=O)C(=O)c3ccccc32)cc1` [SL-11062]: in assay [1] (setting [9]), the IC50 turned out to be 1.71 µM.
On the same count and under the same terms, for `O=C1C=C(OCCCCCNc2c3ccccc3nc3ccccc23)c2ccccc2C1=O` [SL-11059, Acridine-quinone] the value was 4.3 µM.
Regarding `CCNC/C=C\CNC/C=C\CNCCCCNCC` [SL-11119], the EC50 was greater than 31.2 µM in assay [7], 0.44 µM in assay [4], 0.08 µM in assay [5] and 0.97 µM in assay [6]. For the same compound, the IC50 in assay [4] is 0.44 µM; in assay [5], 0.08 µM; in assay [6] it was 0.97 µM.

(Values after patent US7279502B2, “Polyamine analog conjugates and quinone conjugates as therapies for cancers and prostate diseases” (Cellgate, Inc., priority 1999, dated 2007).)
